Legend:
Assay in all cases: relative viability (nuclei count vs DMSO), 5 days (fraction); higher = more cells survive
[1] = compound: C1COCCN1C2=NC(=NC3=C2OC4=C3C=CC=N4)C5=CC(=CC=C5)NC(=O)C6=CN=C(C=C6)N + O=C(CCCCCCC(=O)Nc1ccccc1)NO [Vorinostat] (partner 1 µM)
In short: (§1)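 Cells from lung cancer lines were seeded into 1536-well plates and, one day later, dosed by pin tool. Treatments were either a single drug or a fixed dose of an anchor drug with five library-drug doses (not always all listed) in √10 steps. After 5 days, nuclei were stained in a one-step fixation (final 0.05% Triton X-100, 1% formaldehyde, 1 ug/ml Hoechst) and counted on 4× images, and relative viability is the treated-to-vehicle nuclei ratio, as the median of duplicate plates.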

[2] = compound: Nc1ccccc1NC(=O)c1ccc(CNC(=O)OCc2cccnc2)cc1 [Entinostat] + CC(C)C[C@H](NC(=O)[C@H](Cc1ccccc1)NC(=O)c1cnccn1)B(O)O [Bortezomib] (partner 0.002 µM)
In short: as §1

[3] = compound: Nc1ccccc1NC(=O)c1ccc(CNC(=O)OCc2cccnc2)cc1 [Entinostat] + COc1cc2c(Oc3ccc(NC(=O)C4(C(=O)Nc5ccc(F)cc5)CC4)cc3F)ccnc2cc1OCCCN1CCOCC1 [Foretinib] (partner 0.25 µM)
In short: as §1

[4] = compound: Nc1ccccc1NC(=O)c1ccc(CNC(=O)OCc2cccnc2)cc1 [Entinostat] + Nc1nc2[nH]cc(CCc3ccc(C(=O)N[C@@H](CCC(=O)O)C(=O)O)cc3)c2c(=O)[nH]1 [Pemetrexed] (partner 0.2 µM)
In short: as §1

UMC-11
relative viability ([1]; first compound 0.02 µM): 0.415 | relative viability ([1]; first compound 0.06325 µM): 0.382 | relative viability ([1]; first compound 0.2 µM): 0.352 | relative viability ([1]; first compound 0.6325 µM): 0.369 | relative viability ([1]; first compound 2 µM): 0.264 | relative viability ([2]; first compound 0.02 µM): 0.557 | relative viability ([2]; first compound 0.06325 µM): 0.708 | relative viability ([2]; first compound 0.2 µM): 0.827 | relative viability ([2]; first compound 0.6325 µM): 0.217 | relative viability ([2]; first compound 2 µM): 0.111 | relative viability ([3]; first compound 0.02 µM): 1.22 | relative viability ([3]; first compound 0.06325 µM): 1.08 | relative viability ([3]; first compound 0.2 µM): 0.834 | relative viability ([3]; first compound 0.6325 µM): 0.273 | relative viability ([3]; first compound 2 µM): 0.201 | relative viability ([4]; first compound 0.02 µM): 0.733 | relative viability ([4]; first compound 0.06325 µM): 0.738 | relative viability ([4]; first compound 0.2 µM): 0.5 | relative viability ([4]; first compound 0.6325 µM): 0.346 | relative viability ([4]; first compound 2 µM): 0.145
